Reference: article PMC4609000 (Chembiochem : a European journal of chemical biology, 2015)
Entries after “also recorded” stand apart in the source; their conditions may differ. Where two headings read alike, the source gives them in different places.

Assays:
[1] = target: DXP synthase; settings: cited from earlier work
[2] = target: T1, DXP synthase (Escherichia coli, UniProt P77488); assay: DXP synthase inhibition, continuous spectrophotometric IspC-coupled assay; format: biochemical, E. coli; settings: for mode of inhibition with respect to D-GAP / mode of inhibition with respect to pyruvate: model discrimination analysis (AIC)
[3] = pH 8
[4] = target: T1, DXP synthase; assay: DXP synthase inhibitory activity in the presence of BME or ascorbic acid; format: biochemical, E. coli; settings: inhibitor 50 µM
[5] = target: T1, DXP synthase; assay: Rapid dilution experiment; format: biochemical, E. coli; settings: pre-incubation 15 or 30 min
[6] = 13C NMR monitoring of oxime 8 at pH 8; format: physicochemical; settings: pH 8, 24 hours
[7] = Stability of inhibitors under the assay conditions; settings: HEPES pH 8.0, 37 °C, HPLC analysis, data not shown

T1 sequence (P77488 whole entry): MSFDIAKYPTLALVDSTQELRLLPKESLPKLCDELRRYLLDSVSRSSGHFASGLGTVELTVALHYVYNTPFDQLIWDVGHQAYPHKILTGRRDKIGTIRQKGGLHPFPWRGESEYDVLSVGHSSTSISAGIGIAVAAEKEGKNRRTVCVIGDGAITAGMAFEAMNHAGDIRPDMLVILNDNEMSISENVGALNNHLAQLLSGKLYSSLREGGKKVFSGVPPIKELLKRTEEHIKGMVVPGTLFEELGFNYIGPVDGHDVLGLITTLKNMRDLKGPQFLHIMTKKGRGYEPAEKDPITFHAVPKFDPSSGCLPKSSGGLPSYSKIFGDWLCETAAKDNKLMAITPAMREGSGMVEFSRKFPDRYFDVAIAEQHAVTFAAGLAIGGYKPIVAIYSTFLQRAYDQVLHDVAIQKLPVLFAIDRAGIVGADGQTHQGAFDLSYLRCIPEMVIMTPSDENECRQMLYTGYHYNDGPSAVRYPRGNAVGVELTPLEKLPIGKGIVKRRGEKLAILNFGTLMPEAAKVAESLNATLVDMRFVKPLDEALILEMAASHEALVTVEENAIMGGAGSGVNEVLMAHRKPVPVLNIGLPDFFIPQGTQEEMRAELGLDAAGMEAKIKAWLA

SMILES: CCCCOP(=O)(O)C(C)=O [Butyl Acetyl Phosphonate]
- Ki [1]: 5.6 ± 0.8 µM

SMILES: O=C([O-])/C=N/OCCO/N=C/c1cc(O)c(O)cc1O.[Na+] [Compound 4, Sodium (1E,7E)-1-(2,4,5-trihydroxyphenyl)-3,6-dioxa-2,7-diazanona-1,7-dien-9-oate]
- mode of inhibition with respect to D-GAP [2]: competitive
- mode of inhibition with respect to pyruvate [2]: noncompetitive

SMILES: Oc1cc(O)c(/C=N/OCCO/N=C/c2cc(O)c(O)cc2O)cc1O [Compound 5, (1E,1'E)-O,O'-(Ethane-1,2-diyl)bis(1-(2,4,5-trihydroxyphenyl)-2,4,5-trihydroxybenzaldehyde oxime)]
- mode of inhibition with respect to D-GAP [2]: competitive
- mode of inhibition with respect to pyruvate [2]: uncompetitive

SMILES: O=Cc1cc(O)c(O)cc1O [Compound 6, 2,4,5-trihydroxybenzaldehyde]
- stability under the conditions of the assay [3]: unstable

SMILES: O/N=C/c1cc(O)c(O)cc1O [Compound 7, (E)-2,4,5-Trihydroxybenzaldehyde oxime]
- mode of inhibition with respect to D-GAP [2]: competitive
- mode of inhibition with respect to pyruvate [2]: uncompetitive

SMILES: CO/N=C/c1cc(O)c(O)cc1O [Compound 8, (E)-2,4,5-Trihydroxybenzaldehyde O-methyl oxime]
- mode of inhibition with respect to pyruvate [2]: noncompetitive
- inhibitory activity in the presence of BME ([4]; BME 0.5 mM): abolished; also recorded: abolishes inhibitory activity
- inhibitory activity in the presence of ascorbic acid ([4]; ascorbic acid 2.0 mM): does not abolish inhibitory activity
- time dependence of inhibitory activity [5]: not time-dependent
- quinone species observed by 13C NMR [6]: no observable quinone species

SMILES: Oc1cc(O)c(/C=N/OCc2ccccc2)cc1O [Compound 9, (E)-2,4,5-Trihydroxybenzaldehyde O-benzyl oxime]
- mode of inhibition with respect to pyruvate [2]: noncompetitive

SMILES: CONCc1cc(O)c(O)cc1O.Cl [Compound 10, 5-((Methoxyamino)methyl)benzene-1,2,4-triol hydrochloride]
- stability under the conditions of the assay [7]: unstable
- Ki ([2]; evaluated in the presence of ascorbic acid (2.0 mM)): > 75 µM

SMILES: CN/N=C/c1cc(O)c(O)cc1O [Compound 11, (E)-5-((2-Methylhydrazono)methyl)benzene-1,2,4-triol]
- stability under the conditions of the assay [7]: unstable

SMILES: CO/N=C/c1cc(O)c(O)c(O)c1 [Compound 17, (E)-3,4,5-Trihydroxybenzaldehyde O-methyl oxime]
- mode of inhibition with respect to D-GAP [2]: competitive

SMILES: CO/N=C/c1cc(O)c(O)c(OC)c1 [Compound 18, (E)-3,4-Dihydroxy-5-methoxybenzaldehyde O-methyl oxime]
- inhibition at 200 µM [2]: 18%

SMILES: CO/N=C/c1cccc([N+](=O)[O-])c1O [Compound 21, (E)-2-Hydroxy-3-nitrobenzaldehyde O-methyl oxime]
- Ki [2]: 47.8 ± 8.4 µM
- mode of inhibition with respect to D-GAP [2]: competitive

SMILES: CO/N=C/c1cc(O)c(O)cc1F [Compound 22, (E)-2-Fluoro-4,5-dihydroxybenzaldehyde O-methyl oxime]
- mode of inhibition with respect to D-GAP [2]: competitive
- stability under the conditions of the assay [3]: unstable

SMILES: CO/N=C/c1cc(F)c(F)cc1O [Compound 23, (E)-4,5-Difluoro-2-hydroxybenzaldehyde O-methyl oxime]
- inhibitory activity ([2]; up to 100 µM): minimally active

SMILES: CC1(C)C(=O)ON(Cc2ccccc2Cl)C1=O [Ketoclomazone]
- Ki [1]: 75 µM
- mode of inhibition against D-GAP [1]: noncompetitive
- mode of inhibition with respect to pyruvate [1]: uncompetitive
